Values joined by “and” are separate entries in the source; they are usually repeats but may differ in a detail not shown here. Equal entries are not always repeated. Where two headings read alike, the source gives them in different places.

The test system of series [1] is PHE-precontracted rat aorta with endothelium (E+). Put plainly: Vasodilator effect in PHE-precontracted rat aortic rings with intact endothelium (E+). It is filed as cell-based. The following applies: for EC50: read-out: EC50 (concentration required to achieve 50% relaxation of tissue). How it is done:
(§1) 3-5 months old rats with an average weight of 270±30 g, were used for vascular reactivity experiments.
(§2) Measure of Dilation Activity in Rat Aortic Rings
(§3) Obtaining Aorta rings: Group II rats fasted 24 hours were euthanized by cervical fracture. Thoracic aorta was excised carefully from distal to proximal, from the abdominal aortic bifurcation to aortic arch and placed in a Petri dish containing Krebs-Ringer solution at room temperature with the following composition: 120 mM NaCl; 4.2 mM KCl; 1.18 mM KH2PO4; 1.2 mM MgSO4; 1.3 mM CaCl2; 5 mM C6H12O6; and 25 mM NaHCO3 pH 7.4 and constantly gasified with a mixture of 95% O2 and 5% CO2. After removing blood, fat and connective tissue, the aorta was transversely cut in cylindrical rings 2-3 mm in diameter.
(§4) Mounting of Rings: Each ring was mounted between two triangular stainless steel hooks, one hook was suspended in a glass rod (anchorage) and placed in a Single Organ Chamber with 10 ml Krebs-Ringer constantly aerated with 95% O2 and 5% CO2 gaseous mixture and maintained at 37° C. by thermo regulated pump. The second hook was connected by a thread to an Isometric Force Transducer XDCR (Radnoti Glass Technology Inc. USA.), connected to a data acquisition unit PowerLab 8/30 (ADInstruments). The data were processed using LabChart 7 Pro software, provided by ADInstruments.
(§5) Conditioning of Tissue: After being mounted rings were left to rest with no tension for 30 minutes. Subsequently Krebs-Ringer solution was replaced and rings were allowed to rest for 10 minutes. The rings were then carefully tensioned twice at intervals of 10 minutes each at 1.00 g tension value using micromanipulators. Two settings of tension at 1.40 g at 10 minutes interval each were then made. After the period of stabilization of the tissue, tissue viability was assessed by the addition of solution of 60 mM potassium chloride (KCl). After 10 minutes of contraction of the tissue, it was washed twice at intervals of 5 minutes each before the next addition of KCl.
(§6) Measure of vasodilatory activity: The aortic tissue with endothelium already conditioned was applied a tension of 1.4 g, 1 μM PHE solution was added after 10 minutes. PHE was added cumulatively to each single organ bath after stabilization of PHE-induced contractile response. Stock solutions of 10^−1 M concentration in DMSO were prepared to determine the vasodilatory activity of the isolated metabolites. […] The vasodilator effect was recorded for a period of 30 minutes for each of the concentrations used (FIG. 1). The results are expressed as relaxation percent using the following formula: […]
(§7) wherein R1 is the response induced by PHE and R2 is the response after the extracts are added.
(§8) Endothelium integrity was tested by addition of 1 μM ACh to rings precontracted with 1 uM PHE, and rings were considered with intact endothelium when the ACh dilator response was greater than 80%. While rings with response lower than 10% were discarded (FIG. 2).
(§9) Vascular reactivity experiments were performed to establish the vasodilator action of the isolated compounds. For this, compounds at concentration of 10^−4M were added to the organ chamber, the vasodilatory effect in rings with intact endothelium (E+) and without endothelium (E−) pre-contracted with 1 μM PHE was quantified. We performed parallel vehicle control (DMSO) to discard the relaxing effect of aortic tissue.

Series [2] deals with anesthetized rats. The series can be described thus: In vivo hypotensive effect in anesthetized rats (mean blood pressure after intravenous administration). The following applies: for % MBP reduction / MBP: mean ± SE. How it is done:
Animals used were female albino rats of the Sprague-Dawley strain, obtained from the vivarium of the Universidad de Antofagasta. Two groups of animals were used separated by age:
10-14 months old rats with an average weight of 400±70 g, were used for in vivo experiments. These animals were chosen according to their baseline health status of mild hypertension.
In Vivo Tests—Hypotensive Effect in Anesthetized Rats In vivo experiments were performed using the following protocol. Group I rats were anesthetized with a 5% sodium thiopental aqueous solution at doses of 50 mg/kg animal body weight by intraperitoneal injection. The femoral vein was exposed and cannulated with a PE-10 […] catheter for administering extracts, metabolites and drugs. The right carotid artery was exposed and cannulated using a PE-50 […] catheter filled with heparinized saline (100 IU/mL). This catheter was connected to a pressure transducer (TSD104A) coupled to a data acquisition unit MP100 (BIOPAC Systems Inc) for recording blood pressure. The trachea was exposed and cannulated to facilitate spontaneous breathing of animals. Simultaneously, an ECG recording in derivation II (DII-ECG) was performed using an ECG100B (BIOPAC Systems Inc) module connected to a data acquisition unit MP100. The level of anesthesia of the animals was under constant supervision, so as to remain within surgical levels.
Prior to administration of the next dose, blood pressure and ECG recording were monitored until complete recovery of baseline parameters (pressure and ECG). Effects of each administered dose was measured relative to changes in mean blood pressure, diastolic blood pressure, systolic blood pressure, electrocardiographic changes and compared against the effect of propranolol as a positive control at concentration of 10 mg/Kgweight. After completion of each experiment animals were euthanized by an overdose of anesthetic, by femoral route. The results are expressed as % reduction in BMP, parameter determined using the following equation.
Wherein B is the baseline BMP and E is the value of BMP produced by different doses studied.
All records were performed using 3.9.6.1 Acknowledge software (BIOPAC Systems Inc) and statistical analysis was performed using GraphPad Prism 5.03 software (GraphPad Software Inc.)

In series [3] the test system is PHE-precontracted rat aorta without endothelium (E−). Put plainly: Vasodilator effect in PHE-precontracted rat aortic rings without endothelium (E−). Format: cell-based. To be noted: for Emax at 100 µM: read-out: Emax, maximum relaxation effect; for EC50: dose-response curve; for Emax: read-out: Emax (% relaxation) of dose-response curve. The protocol: as §1, §2, §3, §4, §5, §6, §7, §8, §9

Where [4] appears, read: Rattus norvegicus, compound at 10^−4 M, rings with intact endothelium (E+) pre-contracted with 1 μM PHE, FIG. 5A, read-out: Emax (% relaxation).
Where [5] appears, read: Rattus norvegicus, dose-response curve, E+.
Where [6] appears, read: Rattus norvegicus, maximum effect at 10^−4 M, increasing doses, E+, read-out: Emax (% relaxation) of dose-response curve.
Where [7] appears, read: Rattus norvegicus, compound at 10^−4 M, rings without endothelium (E−) pre-contracted with 1 μM PHE, FIG. 5B.
Setting [8] is: Rattus norvegicus, increasing doses up to 10^−4 M, E−.
Setting [9] is: dose 10^−8 (head: mg/Kgweight; text: M), intravenous.
Where [10] appears, read: dose 10^−9 (head: mg/Kgweight; text: M), intravenous.
Where [11] appears, read: dose 10^−10 (head: mg/Kgweight; text: M), intravenous.
[12] abbreviates: positive control, propranolol 10^−6 M.

Broadly, the Emax is the maximal effect, on the per cent scale that the assay sets. Turning to `CC(=O)OCC[N+](C)(C)C` [ACh, acetylcholine, reference compound], the Emax at 1 µM in series [1] (Rattus norvegicus, 10^−6 M ACh, rings with intact endothelium (E+), FIG. 5A, read-out: Emax (% relaxation), positive control) is 105 ± 5%.

On to `CC(=O)c1ccc(O)c(CC=C(C)C)c1` [Metabolite (A), 4-hydroxy-3-(isopenten-2-yl)-acetophenone], for which the “% MBP reduction” value in series [2] (dose 10^−4 M, intravenous) is reported as 46.93±1.01%; in series [2] (dose 10^−4 M, intravenous, listed as Metabolite 1), 46.93 ± 1.01%; in series [2] (dose 10^−5 M, intravenous), 45.37 ± 1.09%; in series [2] (dose 10^−6 M, intravenous), 35.92 ± 2.01%; in series [2] (dose 10^−7 M, intravenous), 29.68 ± 3.42%; in series [2] (dose 10^−8 M, intravenous), 25.68 ± 5.24%. The “% MBP reduction” value in series [2] (dose 10^−9 M, intravenous) turned out to be 23.62 ± 5.76%; in series [2] (dose 10^−10 M, intravenous), 16.56 ± 9.38%. The MBP in series [2] (dose 10^−4 M, intravenous) stood at 72.12 ± 2.92 mmHg; in series [2] (dose 10^−5 M, intravenous) it was 74.24 ± 2.76 mmHg; in series [2] (dose 10^−6 M, intravenous), 87.09 ± 1.14 mmHg; in series [2] (dose 10^−7 M, intravenous), 95.56 ± 5.01 mmHg; in series [2] (dose 10^−8 M, intravenous) it was 101.0 ± 8.06 mmHg; in series [2] (dose 10^−9 M, intravenous), 103.8 ± 7.98 mmHg. The MBP in series [2] (dose 10^−10 M, intravenous) was found to be 113.4 ± 12.59 mmHg. In series [2] (intravenous, anesthetized rats), the “concentration from which the effect on MBP starts being significant” value is listed as ≥ 10^−6 M. Moreover, the Emax at 100 µM in series [1] (setting [4]) came to 122 ± 2.09%; in series [1] (setting [6]), 111 ± 7.62%; in series [3] (setting [7]) it was 118 ± 10.7%. Besides, the EC50 in series [1] (setting [5]) turned out to be 8.98 nM; in series [3] (Rattus norvegicus, E−) it was 7.31 nM. Moreover, the “concentration from which the vasodilator effect started” value in series [1] (dose-response curve, E+) was ≥ 10^−8 M. For the same compound, the Emax in series [3] (setting [8]) turned out to be 109 ± 7.53%.

As to `C=C(C)[C@@H]1Cc2cc(C(C)=O)c(O)cc2O1` [Metabolite (B), 6-hydroxy-2-isopropenyl-5-acetyl-2,3-dihydrobenzofuran], the results for the maximal response (Emax) at 100 µM in series [1] (setting [4]), in series [1] (setting [6]) and in series [3] (setting [7]) were 135 ± 3.78%, 112 ± 6.21% and 146 ± 4.49%, respectively. The EC50 was 7.16 nM in series [1] (setting [5]) and 5.94 nM in series [3] (Rattus norvegicus, E−). The “concentration from which the vasodilator effect started” value in series [1] (dose-response curve, E+) is recorded as ≥ 10^−8 M. For the same compound, the Emax in series [3] (setting [8]) was 109 ± 7.53%.

For `CC(C)=CCc1cc(/C(C)=N/O)ccc1O` [Oxime (1), 4-hydroxy-3-(isopenten-2-yl)-acetophenoxime], the “% MBP reduction” value in series [2] (dose 10^−7 (head: mg/Kgweight; text: M), intravenous, maximum effect) was 70.61 ± 4.32%; in series [2] (dose 10^−7 (head: mg/Kgweight; text: M), intravenous, maximum effect, listed as oxime (1)), 70.61±4.32%; in series [2] (setting [9]), 58.31 ± 3.26%; in series [2] (setting [10]), 38.41 ± 2.35%; in series [2] (setting [11]) it was 36.60 ± 7.90%. For the same compound, the MBP is on record as 41.65 ± 0.85 mmHg in series [2] (dose 10^−7 (head: mg/Kgweight; text: M), intravenous); 59.05 ± 2.09 mmHg in series [2] (setting [9]); 87.28 ± 1.90 mmHg in series [2] (setting [10]); 89.84 ± 10.88 mmHg in series [2] (setting [11]). The “concentration from which the effect on MBP starts being significant” value in series [2] (intravenous, anesthetized rats) is ≥ 10^−9 M. In series [2] (intravenous, anesthetized rats), the “doses that induced acute hypotension and subsequent animal death by cardiac arrest” value is reported as “higher than 10^−7 M”. In addition, the values for the Emax at 100 µM in series [1] (setting [4]), in series [1] (setting [6]) and in series [3] (setting [7]) were 130 ± 2.54%, 119 ± 3.92% and 120 ± 1.74%, respectively. In addition, the EC50 was 6 nM in series [1] (setting [5]) and 6.56 nM in series [3] (Rattus norvegicus, E−). The tissue relaxation in series [1] (at concentration 10^−5 M, dose-response curve, E+) came to 101.6±0.90%. For the same compound, the “concentration from which the vasodilator effect started” value in series [1] (dose-response curve, E+) is ≥ 10^−9 M. In series [3] (setting [8]), the Emax is 114 ± 6.19%.

Consider `C=C(C)C1Cc2cc(C(C)=NO)c(O)cc2O1` (centres unmarked) [Oxime (2), 6-hydroxy-2-isopropenyl-5-acetyloxime-2,3-dihydrobenzofuran], for which, in series [1] (compound at 10^−4 M, rings with intact endothelium (E+) pre-contracted with 1 μM PHE, FIG. 5A), the “Emax (% relaxation)” value came out at 118.4±0.93%. The “concentration from which the vasodilator effect started” value in series [1] (dose-response curve, E+) is ≥ 10^−8 M. The EC50 was 4.3 nM in series [1] (dose-response curve, E+) and 4.65 nM in series [3] (E−). The “Emax (% relaxation) of dose-response curve” value in series [1] (maximum effect at 10^−4 M, increasing doses, E+) came to 109.3±2.72%; in series [3] (increasing doses up to 10^−4 M, E−), 110.3±4.40%. The “Emax, maximum relaxation effect” value in series [3] (compound at 10^−4 M, rings without endothelium (E−) pre-contracted with 1 μM PHE, FIG. 5B) is 117.7±1.00%.

As for `CC(C)NCC(O)COc1cccc2ccccc12` (centres unmarked) [propranolol, reference compound], in series [2] (setting [12]), the “% MBP reduction” value was 18.99 ± 4.35% and 22.29 ± 3.20%; the MBP was 110.1 ± 6.03 mmHg and 108.70 ± 8.55 mmHg.
